# Values quoted from earlier work in patent US7744929B2, “Botanical drug compositions for treatments of liver and immunological disorders” (priority 2003, dated 2010).
# Tested on: HCV
compound,measurement,setting,value
NC(=O)c1ncn([C@@H]2O[C@H](CO)[C@@H](O)[C@H]2O)n1 [ribavirin],increase of the sustained response rate,ribavirin added to interferon,two- to three fold
same,effect on HCV,ribavirin by itself,little effect
